# From patent publication US12390536B2, “Antibody-drug complex containing toll-like receptor 7/8 dual agonist compound” (ASTELLAS PHARMA INC., priority 2022, dated 2025)
# Where a name gives a salt, the structure may show the parent alone. Read-outs that look alike come from different tables or passages of the source.
# Legend:
# [1] = biological target: T1, mouse TLR7 (Mus musculus, UniProt P58681); test: TLR7/8 reporter assay (HEK293, NFκB Nanoluc luciferase reporter), mouse TLR7; format: cell-based; conditions: 24-hour incubation; read-out: mTLR7 EC50
# T1 construct: expressed in transfected cells
# T1 sequence (P58681 27-1050): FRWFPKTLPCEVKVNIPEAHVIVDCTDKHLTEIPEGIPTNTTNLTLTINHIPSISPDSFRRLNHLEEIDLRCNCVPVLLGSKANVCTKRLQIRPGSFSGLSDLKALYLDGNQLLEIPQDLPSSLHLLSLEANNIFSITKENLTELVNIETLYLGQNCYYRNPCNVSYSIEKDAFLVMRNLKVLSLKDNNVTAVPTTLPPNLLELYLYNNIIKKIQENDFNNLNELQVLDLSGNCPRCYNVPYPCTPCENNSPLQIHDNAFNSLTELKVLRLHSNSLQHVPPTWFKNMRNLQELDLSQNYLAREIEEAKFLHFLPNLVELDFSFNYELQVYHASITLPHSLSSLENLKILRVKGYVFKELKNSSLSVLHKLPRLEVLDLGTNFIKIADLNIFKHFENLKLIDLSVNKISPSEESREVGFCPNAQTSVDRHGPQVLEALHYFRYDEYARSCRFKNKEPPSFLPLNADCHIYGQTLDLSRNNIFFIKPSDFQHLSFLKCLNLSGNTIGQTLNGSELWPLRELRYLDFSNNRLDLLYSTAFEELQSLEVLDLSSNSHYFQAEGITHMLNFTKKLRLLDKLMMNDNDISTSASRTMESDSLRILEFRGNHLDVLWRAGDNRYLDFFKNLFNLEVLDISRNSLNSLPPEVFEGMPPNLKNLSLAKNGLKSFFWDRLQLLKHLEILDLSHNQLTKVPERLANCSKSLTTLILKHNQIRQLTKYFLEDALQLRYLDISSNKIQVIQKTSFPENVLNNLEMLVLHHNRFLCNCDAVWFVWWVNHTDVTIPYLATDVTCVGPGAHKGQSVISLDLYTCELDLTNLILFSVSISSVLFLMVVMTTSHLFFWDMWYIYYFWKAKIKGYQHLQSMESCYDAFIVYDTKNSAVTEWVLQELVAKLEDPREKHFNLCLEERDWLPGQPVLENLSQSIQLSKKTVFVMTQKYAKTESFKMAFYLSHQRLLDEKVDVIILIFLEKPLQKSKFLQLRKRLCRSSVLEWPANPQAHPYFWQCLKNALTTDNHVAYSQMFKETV
# Method: (§1) HEK293 cells (ATCC, #CRL-1573) were co-transfected with an expression vector having a nucleotide sequence encoding a TLR (human TLR7, human TLR8 or mouse TLR7) protein and a Nanoluc PEST luciferase reporter vector having an NFκB response element sequence (Genbank: JQ513377 bases 33 to 84) integrated therein. Thereafter, the transfected cells were cultured in DMEM (Sigma-Aldrich, #D5796-500 mL) containing Geneticin (Gibco, #10131-027) at a final concentration of 800 μg/mL, Hygromycin B (Invitrogen, #10687010) at a final concentration of 500 μg/mL, penicillin streptomycin (Gibco, #15070-063) at a final concentration of 1% and a 10% fetal bovine serum (FBS) (HyClone, #SH30084.03) to obtain a stable cell line for expression.
# (§2) To reporter cells obtained above, DMEM containing 10% FBS was added to prepare a suspension of 1×10^5 cells/mL. The suspension was added to the wells of a 384-well white plate coated with collagen I (hereinafter referred to as “384-well plate”, Corning, #356703) at a rate of 20 μL per well. The cells were cultured in the conditions of 37° C. and 5% CO2, overnight (18 hours) and allowed to adhere to the plate. A test sample was dissolved in DMSO. The solution was diluted by adding DMEM medium containing 10% FBS to the solution such that the concentration becomes 5-fold as high as a final concentration. The diluted DMEM medium was added to the wells of the 384-well plate at a ratio of 5 μL/well. After the medium was further incubated in the conditions of 37° C. and 5% CO2 for 24 hours, the plate was taken out and allowed to stand still at room temperature for 10 minutes. Thereafter, chemiluminescence was measured using Nano-Glo Luciferase Assay System (Promega, #N1120) and EnVision 2104 (PerkinElmer) plate reader. A dose-response curve was prepared for each test sample and the EC50 value was obtained as a concentration at 50% of the maximum signal. In the table, hTLR7 represents human TLR7 and hTLR8 represents human TLR8; and mTLR7 represents mouse TLR7. A data item attached with an asterisk (*) indicates the result of 7 hour-incubation and other data items are the results of 24-hour incubation.
# [2] = biological target: T2, human TLR8 (Homo sapiens, UniProt Q9NR97); test: TLR7/8 reporter assay (HEK293, NFκB Nanoluc luciferase reporter), human TLR8; format: cell-based; conditions: read-out: hTLR8 EC50
# T2 construct: expressed in transfected cells
# T2 sequence (Q9NR97 27-1041): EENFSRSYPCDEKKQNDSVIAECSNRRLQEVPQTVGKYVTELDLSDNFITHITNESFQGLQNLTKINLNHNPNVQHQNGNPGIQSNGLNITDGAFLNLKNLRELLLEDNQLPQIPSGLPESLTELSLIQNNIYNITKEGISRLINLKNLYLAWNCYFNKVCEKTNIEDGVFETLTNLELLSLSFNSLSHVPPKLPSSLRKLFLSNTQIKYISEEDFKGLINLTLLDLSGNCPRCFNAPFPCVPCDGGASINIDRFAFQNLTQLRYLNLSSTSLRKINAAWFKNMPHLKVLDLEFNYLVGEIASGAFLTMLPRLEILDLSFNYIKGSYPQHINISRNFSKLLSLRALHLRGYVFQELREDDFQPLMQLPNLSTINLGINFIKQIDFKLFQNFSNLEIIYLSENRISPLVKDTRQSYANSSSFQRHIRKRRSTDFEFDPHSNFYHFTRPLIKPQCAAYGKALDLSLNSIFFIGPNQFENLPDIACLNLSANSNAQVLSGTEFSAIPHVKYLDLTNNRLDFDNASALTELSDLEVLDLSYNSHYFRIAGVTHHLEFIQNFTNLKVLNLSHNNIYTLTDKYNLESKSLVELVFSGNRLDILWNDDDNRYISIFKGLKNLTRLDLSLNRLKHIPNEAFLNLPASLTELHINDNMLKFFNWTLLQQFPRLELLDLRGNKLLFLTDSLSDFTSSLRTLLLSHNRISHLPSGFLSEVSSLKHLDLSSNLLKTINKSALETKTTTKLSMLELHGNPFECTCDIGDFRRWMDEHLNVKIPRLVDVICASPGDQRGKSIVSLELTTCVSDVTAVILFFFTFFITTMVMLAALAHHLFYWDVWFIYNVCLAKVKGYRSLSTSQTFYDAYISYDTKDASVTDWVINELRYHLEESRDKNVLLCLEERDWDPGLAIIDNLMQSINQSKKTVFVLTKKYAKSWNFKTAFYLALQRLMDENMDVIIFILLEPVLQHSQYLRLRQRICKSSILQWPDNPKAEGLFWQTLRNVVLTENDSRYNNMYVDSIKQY
# Method: as §1, §2
SMILES,EC50 [1] [nM],EC50 ([2]; 24-hour incubation) [nM],EC50 ([2]; asterisk (*): 7 hour-incubation) [nM]
"CCCCCSc1nc(N)nc2ccn(Cc3ccc(CN4CCNCC4)cc3OC)c12 [Ex4, 5-({2-methoxy-4-[(piperazin-1-yl)methyl]phenyl}methyl)-4-(pentylsulfanyl)-5H-pyrrolo[3,2-d]pyrimidin-2-amine]",39.9,2480,–
"CCCCCSc1nc(N)nc2ccn(Cc3ccc(CN4CCC[C@H]4CO)cc3OC)c12 [Ex5, {(2S)-1-[(4-{[2-amino-4-(pentylsulfanyl)-5H-pyrrolo[3,2-d]pyrimidin-5-yl]methyl}-3-methoxyphenyl)methyl]pyrrolidin-2-yl}methanol]",26.7,11700,–
"CCCCCNc1nc(N)nc2c(Cl)cn(Cc3ccc(CN4CCC[C@H]4CO)cc3OC)c12 [Ex6, {(2S)-1-[(4-{[2-amino-7-chloro-4-(pentylamino)-5H-pyrrolo[3,2-d]pyrimidin-5-yl]methyl}-3-methoxyphenyl)methyl]pyrrolidin-2-yl}methanol]",10.1,964,–
"CCCCCNc1nc(N)nc2c(Br)cn(Cc3ccc(CN4CCC[C@H]4CO)cc3OC)c12 [Ex7, {(2S)-1-[(4-{[2-amino-7-bromo-4-(pentylamino)-5H-pyrrolo[3,2-d]pyrimidin-5-yl]methyl}-3-methoxyphenyl)methyl]pyrrolidin-2-yl}methanol]",21.5,2000,–
"CCCCCNc1nc(N)nc2cc(C)n(Cc3ccc(CN4CCNCC4)cc3OC)c12 [Ex8, 5-({2-methoxy-4-[(piperazin-1-yl)methyl]phenyl}methyl)-6-methyl-N^4-pentyl-5H-pyrrolo[3,2-d]pyrimidine-2,4-diamine hydrochloride]",23.5,2110,–
"CCCCCNc1nc(N)nc2ccn(Cc3ccc(CN4CCNC[C@@H]4CF)cc3OC)c12 [Ex10, 5-[(4-{[(2R)-2-(fluoromethyl)piperazin-1-yl]methyl}-2-methoxyphenyl)methyl]-N^4-pentyl-5H-pyrrolo[3,2-d]pyrimidine-2,4-diamine]",8.75,716,–
COc1cc(CN2CCNC[C@H]2CF)ccc1Cn1ccc2nc(N)nc(SCc3cc(C)on3)c21 [Ex11],9.2,13300,–
CCCCCSc1nc(N)nc2ccn(Cc3ccc(CN4CC[C@H]4CO)cc3OC)c12 [Ex13],17.4,6220,–
CCCCCSc1nc(N)nc2ccn(Cc3ccc(CN4CCC(O)CC4)cc3OC)c12 [Ex14],27.3,6590,–
CCCCCSc1nc(N)nc2ccn(Cc3ccc(CN4CC[C@@H](CN)C4)cc3OC)c12 [Ex15],111,4880,–
CCCCCNc1nc(N)nc2c(Cl)cn(Cc3ccc(CN4CCC[C@H]4C(C)(C)O)cc3OC)c12 [Ex18],13.9,3630,–

# The next compounds have a lower EC50 [1] than those just listed; values first:
EC50 [1] [nM],EC50 ([2]; 24-hour incubation) [nM],EC50 ([2]; asterisk (*): 7 hour-incubation) [nM],SMILES
2.92,220,–,"CCCCCNc1nc(N)nc2ccn(Cc3ccc(CN4CCNC[C@H]4CF)cc3OC)c12 [Ex1, 5-[(4-{[(2S)-2-(fluoromethyl)piperazin-1-yl]methyl}-2-methoxyphenyl)methyl]-N^4-pentyl-5H-pyrrolo[3,2-d]pyrimidine-2,4-diamine]"
5.36,1970,–,"CCCCCNc1nc(N)nc2ccn(Cc3ccc(CN4CCN[C@@H](CF)C4)cc3OC)c12 [Ex2, 5-[(4-{[(3R)-3-(fluoromethyl)piperazin-1-yl]methyl}-2-methoxyphenyl)methyl]-N^4-pentyl-5H-pyrrolo[3,2-d]pyrimidine-2,4-diamine (trifluoroacetic acid) salt]"
6.17,2160,–,"CCCCCNc1nc(N)nc2ccn(Cc3ccc(CNC4CC4)cc3OC)c12 [Ex3, 5-({4-[(cyclopropylamino)methyl]-2-methoxyphenyl}methyl)-N^4-pentyl-5H-pyrrolo[3,2-d]pyrimidine-2,4-diamine]"
4.81,1180,–,"CCCCCNc1nc(N)nc2ccn(Cc3ccc(CC4CCNCC4)cc3OC)c12 [Ex9, 5-({2-methoxy-4-[(piperidin-4-yl)methyl]phenyl}methyl)-N^4-pentyl-5H-pyrrolo[3,2-d]pyrimidine-2,4-diamine]"
3.58,–,685,CCCCCNc1nc(N)nc2ccn(Cc3ccc(CNCC4CCC4)cc3OC)c12 [Ex12]
7.11,3740,–,CCCCCNc1nc(N)nc2c(Cl)cn(Cc3ccc(CN4CC[C@H]4CO)cc3OC)c12 [Ex17]
